# Laboratory results from patent US20090226368A1, “Androgen-Receptor (AR) Ligands for Use in the Treatment and Diagnosis of AR-Related Pathologies” (priority 2005, published 2009).
# Experiments:
# [1] = target: T1, human AR recombinant (Homo sapiens, UniProt P10275); experiment: Relative Binding Affinity (RBA) assay, competitive binding with [3H]R1881; details: against [3H]R1881; R1881 standard = 100 by definition
# T1 construct: purchased Pan-Vera
# T1 sequence (P10275 1-920): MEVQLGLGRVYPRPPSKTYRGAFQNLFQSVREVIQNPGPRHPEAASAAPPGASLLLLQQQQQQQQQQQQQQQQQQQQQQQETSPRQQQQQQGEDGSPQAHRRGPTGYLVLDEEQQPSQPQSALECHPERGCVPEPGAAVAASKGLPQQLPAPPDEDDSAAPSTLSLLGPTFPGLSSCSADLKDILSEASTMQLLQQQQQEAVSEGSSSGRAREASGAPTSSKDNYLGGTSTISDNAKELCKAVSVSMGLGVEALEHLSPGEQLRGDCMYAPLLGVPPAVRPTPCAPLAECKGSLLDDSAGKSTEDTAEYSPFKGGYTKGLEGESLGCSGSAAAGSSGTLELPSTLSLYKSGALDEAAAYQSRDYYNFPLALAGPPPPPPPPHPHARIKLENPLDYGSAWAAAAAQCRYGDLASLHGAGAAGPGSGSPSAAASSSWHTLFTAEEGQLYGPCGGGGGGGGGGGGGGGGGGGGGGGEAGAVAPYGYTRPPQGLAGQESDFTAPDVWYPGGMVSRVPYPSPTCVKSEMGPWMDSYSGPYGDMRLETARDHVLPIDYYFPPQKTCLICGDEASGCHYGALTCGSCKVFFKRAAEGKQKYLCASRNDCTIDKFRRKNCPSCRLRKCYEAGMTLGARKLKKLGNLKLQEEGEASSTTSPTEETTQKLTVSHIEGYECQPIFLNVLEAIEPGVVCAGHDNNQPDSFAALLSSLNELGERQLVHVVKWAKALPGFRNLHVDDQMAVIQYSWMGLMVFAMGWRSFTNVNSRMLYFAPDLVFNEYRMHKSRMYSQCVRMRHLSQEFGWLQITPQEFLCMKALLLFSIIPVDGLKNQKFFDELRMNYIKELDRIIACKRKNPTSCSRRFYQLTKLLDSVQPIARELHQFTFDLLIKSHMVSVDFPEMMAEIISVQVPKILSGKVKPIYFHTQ
# Procedure: In order to measure the affinity of the compounds to the A, the compounds of the general Formula I, referred herein also as the AR ligands were tested in RBA (Relative Binding Affinity) assay, which is a competitive binding assay with ^3H—R1881, a high affinity AR binding ligand.
# RBA of androgens were measured against [^3H]R1881 in human AR recombinant (Pan-Vera). RBA values of the standards are 100 by definition (Brandes S. J., et al., Molecular Pharmacology; 1987; 32:391-400).
# [2] = test system: LNCap cell lines; experiment: Antagonist test, PSA secretion measured by ELISA; format: cell-based; details: 48 and 72 hours; for PSA secretion in comparison to the control: given alone, testosterone 100 nM, compound 0.2, 0.5 and 1 μM
# Procedure: PSA (Prostate Specific Antigen) is a secreted protein which is regulated by AR and is clinically used to detect prostate cancer in humans. LNCap cell lines were seeded in 24 wells (10^5 cells/well) in 10% FCS RPMI supplemented with sodium-pyruvate, pen/strep, L-glutamine, testosterone and insulin and grown for 24 hours. Then, the cells were washed 3 times with cold PBS and incubated in 10% FCS red-phenol-free RPMI. Testosterone (100 nM), ^18F-labeled (R)-Compound 3 (0.2, 0.5 and 1 μM) or both were added to the wells. Ethanol, which was used as the solvent of the testosterone and ^18F-labeled (R)-Compound 3, was added to the control wells in the same concentration.
# At 48 and 72 hours, a sample of the medium was taken and the PSA levels were measured by ELISA.
# [3] = Blood stability test, incubation in blood at 37° C.; format: in vitro ADME, human
# Procedure: Blood was taken in EDTA tubes in order to prevent coagulation. 550 μl of ^18F-labeled (R)-Compound 3 was added to 1 ml of blood, and put in a rotating incubator at 37° C. The incubation times were 0, 30, 60 and 90 minutes. After the incubation, the blood was centrifuged for 5 minutes at 3000 rpm. The plasma was centrifuged again for 5 minutes at 10600 g and the pellet was discarded. 400 μl of the resulting supernatant was added to 800 μl of 30% THF/CH3CN, vortexed for 30 seconds and centrifuged for 5 minute at 10600 g. The supernatant was filtered through 0.45 μm filter and injected to HPLC column. The column was eluted with a mixture of acetate buffer (pH 3.8) and acetonitrile (35:65) at flow rate of 3 ml/min. The HPLC eluent was monitored sequentially for UV absorbance at 254 nm and radioactivity. Each sample was done in duplicate.
# The same procedure was done with the ^11C-labeled (R)-Compound 3 after incubation of 0, 15, 30 and 45 minutes.
# Blood stability, which was measured by phosphor-imager, was done in the same procedure. The filtered samples were loaded on reverse phase TLC plates and exposed to the phosphor-imager plates for 1 hour.
# In the case of (R)-Compound 2, the incubation in the human blood sample was 0, 15, 30 and 45 minutes. The percent of extraction of the compound was around 40%.
# [4] = In-vivo blood stability in nude mice; details: blood sampled after 0, 15, 30 and 35 minutes, phosphor-imagers
# Procedure: In-vivo blood stability experiments were performed for the ^11C-labeled (R)-Compound 3. The compound was injected into nude mice. Blood was sampled from the mice after 0, 15, 30 and 35 minutes. The labeled compound was extracted and evaluated using phosphor-imagers.
# [5] = Biodistribution in normal Lewis male rats, gamma-counter; format: in vivo; details: tail vein
# Procedure: The distribution of ^11C-labeled (R)-Compound 3 was measured in normal Lewis male rats which have been kept under SPF conditions. The labeled compound was injected through the tail vein of the rat. The rats were sacrificed 30, 60 and 90 minutes post injection, and prostate, blood, liver, muscle and kidney were removed and the activity in each organ was measured by gamma-counter (Tables 2A-D).
# [6] = PET-CT scan of distribution, bladder activity; format: in vivo; details: normal Lewis male rats, 40 minutes post injection
# Procedure: In some clinically used radio-tracers, such of FDG, activity is observed in the bladder, and mask the prostate. […] The distribution of the compound was scanned by human PET-CT. Counter dye was injected to the animal 10 minutes prior to the injection of the labeled compound and the exact location of the bladder was detected by CT. In accordance with the biodistribution experiment, activity was measured in the metabolic organs.
# [7] = blood, 37° C., incubation 0, 30, 60 and 90 minutes, HPLC
# [8] = 30 minutes post injection, Table 2A
# [9] = 60 minutes post injection, Table 2B
# [10] = 60 minutes post injection, Table 2B (Rats 1, 2)
# [11] = 60 minutes post injection, Table 2C
# [12] = 60 minutes post injection, Table 2C (Rats 3, 4)
# [13] = 90 minutes post injection, Table 2D
structure (smiles),measurement,setting,value
C[C@]1(O)CC[C@H]2[C@@H]3CCC4=CC(=O)CCC4=C3C=C[C@@]21C [Compound R1881],RBA (%),[1],100%
"CN(C)C[C@@](C)(O)C(=O)Nc1ccc(C#N)c(C(F)(F)F)c1 [(R)-Compound 1, (R)-3-Dimethyl-N-(4-cyano-3-trifluoromethyl-phenyl)-2-hydroxy-2-methyl-propionamide]",RBA (%),[1],0.030%
"C[C@]12CC[C@H]3[C@@H](CCC4=CC(=O)CC[C@@]43C)[C@@H]1CC[C@@H]2O [Testosterone, reference compound]",PSA secretion in comparison to the control,[2],increased PSA secretion
CC(C)(O)C(=O)Nc1ccc([N+](=O)[O-])c(C(F)(F)F)c1 [Hydroxyflutamide],RBA (%),[1],0.027%
"CN(C)C[C@@](C)(O)C(=O)Nc1ccc([N+](=O)[O-])c(C(F)(F)F)c1 [(R)-Compound 2, (R)-3-Dimethyl-2-hydroxy-2-methyl-N-(4-nitro-3-trifluoromethyl-phenyl)-propionamide]",RBA (%),[1],0.036%
same,percent of extraction,"[3]; human blood sample, incubation 0, 15, 30 and 45 minutes",around 40%
same,formation of metabolites,"[3]; human blood sample, incubation 0, 15, 30 and 45 minutes, phosphor-imager",no metabolites were evident
CN(C)C[C@@](C)(O)C(=O)Nc1ccc([18F])c(C(F)(F)F)c1 [^18F-labeled (R)-Compound 3],metabolites in blood,[3]; [7],no metabolites were evident
same,percent of extraction,[3]; [7],39-43%
same,PSA secretion in comparison to the control,[2],reduced the PSA secretion
same,testosterone-induced secretion of PSA,"[2]; together with testosterone 100 nM, 0.2, 0.5 and 1 μM, P<0.01",significantly reduced the testosterone-induced secretion of PSA
CN([11CH3])C[C@@](C)(O)C(=O)Nc1ccc(F)c(C(F)(F)F)c1 [^11C-labeled (R)-Compound 3],metabolites in blood in vivo,[4],No metabolites were evident
same,"Biodistribution Blood, Av.",[5]; [8],0.76 % id/g
same,"Biodistribution Blood, Rat 1",[5]; [8],0.89 % id/g
same,"Biodistribution Blood, Rat 2",[5]; [8],0.63 % id/g
same,"Biodistribution Kidney, Av.",[5]; [8],12.43 % id/g
same,"Biodistribution Kidney, Rat 1",[5]; [8],15.57 % id/g
same,"Biodistribution Kidney, Rat 2",[5]; [8],9.29 % id/g
same,"Biodistribution Liver, Av.",[5]; [8],3.96 % id/g
same,"Biodistribution Liver, Rat 1",[5]; [8],4.26 % id/g
same,"Biodistribution Liver, Rat 2",[5]; [8],3.67 % id/g
same,"Biodistribution Muscle, Av.",[5]; [8],1.14 % id/g
same,"Biodistribution Muscle, Rat 1",[5]; [8],1.07 % id/g
same,"Biodistribution Muscle, Rat 2",[5]; [8],1.21 % id/g
same,"Biodistribution Prostate, Av.",[5]; [8],1.47 % id/g
same,"Biodistribution Prostate, Rat 1",[5]; [8],1.67 % id/g
same,"Biodistribution Prostate, Rat 2",[5]; [8],1.27 % id/g
same,"Biodistribution Blood, Rat 1",[5]; [9],0.54 % id/g
same,"Biodistribution Blood, Rat 2",[5]; [9],0.41 % id/g
same,"Biodistribution Kidney, Rat 1",[5]; [9],5.03 % id/g
same,"Biodistribution Kidney, Rat 2",[5]; [9],3.54 % id/g
same,"Biodistribution Liver, Rat 1",[5]; [9],8.79 % id/g
same,"Biodistribution Liver, Rat 2",[5]; [9],4.61 % id/g
same,"Biodistribution Muscle, Rat 1",[5]; [9],1.02 % id/g
same,"Biodistribution Muscle, Rat 2",[5]; [9],0.68 % id/g
same,"Biodistribution Prostate, Rat 1",[5]; [9],2.32 % id/g
same,"Biodistribution Prostate, Rat 2",[5]; [9],1.05 % id/g
same,"Biodistribution Blood, Av.",[5]; [10],0.48 % id/g
same,"Biodistribution Kidney, Av.",[5]; [10],4.29 % id/g
same,"Biodistribution Liver, Av.",[5]; [10],6.70 % id/g
same,"Biodistribution Muscle, Av.",[5]; [10],0.85 % id/g
same,"Biodistribution Prostate, Av.",[5]; [10],1.69 % id/g
same,"Biodistribution Blood, Rat 3",[5]; [11],0.28 % id/g
same,"Biodistribution Blood, Rat 4",[5]; [11],0.35 % id/g
same,"Biodistribution Kidney, Rat 3",[5]; [11],2.48 % id/g
same,"Biodistribution Kidney, Rat 4",[5]; [11],2.54 % id/g
same,"Biodistribution Liver, Rat 3",[5]; [11],5.30 % id/g
same,"Biodistribution Liver, Rat 4",[5]; [11],5.14 % id/g
same,"Biodistribution Muscle, Rat 3",[5]; [11],0.55 % id/g
same,"Biodistribution Muscle, Rat 4",[5]; [11],0.56 % id/g
same,"Biodistribution Prostate, Rat 3",[5]; [11],1.13 % id/g
same,"Biodistribution Prostate, Rat 4",[5]; [11],1.18 % id/g
same,"Biodistribution Blood, Av.",[5]; [12],0.32 % id/g
same,"Biodistribution Kidney, Av.",[5]; [12],2.51 % id/g
same,"Biodistribution Liver, Av.",[5]; [12],5.22 % id/g
same,"Biodistribution Muscle, Av.",[5]; [12],0.55 % id/g
same,"Biodistribution Prostate, Av.",[5]; [12],1.16 % id/g
same,"Biodistribution Blood, Av.",[5]; [13],0.36 % id/g
same,"Biodistribution Blood, Rat 1",[5]; [13],0.3 % id/g
same,"Biodistribution Blood, Rat 2",[5]; [13],0.42 % id/g
same,"Biodistribution Kidney, Av.",[5]; [13],2.46 % id/g
same,"Biodistribution Kidney, Rat 1",[5]; [13],2.24 % id/g
same,"Biodistribution Kidney, Rat 2",[5]; [13],2.68 % id/g
same,"Biodistribution Liver, Av.",[5]; [13],5.35 % id/g
same,"Biodistribution Liver, Rat 1",[5]; [13],5.16 % id/g
same,"Biodistribution Liver, Rat 2",[5]; [13],5.55 % id/g
same,"Biodistribution Muscle, Av.",[5]; [13],0.53 % id/g
same,"Biodistribution Muscle, Rat 1",[5]; [13],0.48 % id/g
same,"Biodistribution Muscle, Rat 2",[5]; [13],0.57 % id/g
same,"Biodistribution Prostate, Av.",[5]; [13],1.17 % id/g
same,"Biodistribution Prostate, Rat 1",[5]; [13],1.22 % id/g
same,"Biodistribution Prostate, Rat 2",[5]; [13],1.12 % id/g
same,activity in the bladder,[6],No activity was observed in the bladder
"CN(C)C[C@@](C)(O)C(=O)Nc1ccc(F)c(C(F)(F)F)c1 [(R)-Compound 3, (R)-3-Dimethyl-N-(4-fluoro-3-(trifluoromethyl)phenyl)-2-hydroxy-2-methyl-propanamide]",RBA (%),[1],0.029%
"CC(C)(O)C(=O)Nc1ccc(F)c(C(F)(F)F)c1 [(R)-F-2, N-(4-fluoro-3-(trifluoromethyl)phenyl)-2-hydroxy-2-methylpropanamide]",RBA (%),[1],0.027%
"C[C@](O)(CBr)C(=O)Nc1ccc(F)c(C(F)(F)F)c1 [(R)-F-1, (R)-3-Bromo-N-(4-fluoro-3-(trifluoromethyl)phenyl)-2-hydroxy-2-methyl-propanamide]",RBA (%),[1],0.057%
